What was measured:
[1] = test system: patients aged 50 to 85 years with probable AD; details: with adjuvant QS-21 and polysorbate 80, cited from earlier work
mice = assay: T cell epitope mapping: antibody production after vaccination with DCs treated with Abeta fragments (FIG. 11); assay type: in vivo, mouse; details: two vaccinations with DCs, 1×10^6 cells/mice, treated with 20 μg/million cell; ELISA 1:800 dilutions
Source text: FIG. 11. Mapping result of T cell epitope with Abeta fragment carrying Dutch mutation by ELISA.

BALB/c mice [2] = assay: Antibody titer by ELISA after adjuvant-free subcutaneous Abeta peptide vaccination; assay type: in vivo, mouse; details: boost 50 ug/mice six months post third inoculation; ELISA 10 days later; no adjuvant
Procedure: Peptides: Aβ 1-42 and related peptides were obtained from Synpep (Dublin, Calif.). Peptides for vaccination were reconstituted to 10 mg/ml in DMSO and further diluted to 2 mg/ml with phosphate buffered saline.
Mice: 10 weeks old female BALB/c mice from the Jackson laboratories were housed in Varian standard cages including amber igloos and vaccinated when 14 weeks old. A total of 28 mice were grouped into 7 vaccination groups each with four animals. Differently mutated Aβ1-42 peptides were used for each group and a 1×PBS (also containing 10% DMSO) as a control group. Initial subcutaneous vaccination began at 100 μg peptide in 100 μl VEHICLE and subsequent booster vaccinations proceeded at 100 μg peptide (100 μl) at two weeks intervals. A third inoculation was carried out with 50 μg peptide in 100 μl.
Bleeding and plasma collection procedures: 10 days after injection, mice were bled by submandibular phlebotomy into EDTA tubes, and plasma was separated by centrifugation at 1500 g for 20 minutes with StatSampler from StatSpin (MA). Plasma were isolated by centrifugation and frozen at −80° C.
Antibody titer determination: Anti-amyloid beta antibody (6E10) was purchased from Signet Laboratories (Dedham, Mass.) and used as positive control. […] Plates were read at 450 nm/630 nm, and samples with readings three times higher than controls were considered positive. […]

BALB/c mice [3] = assay: Mouse anti-Abeta IgG isotyping (Th1/Th2 response); assay type: in vivo; details: n=4; for Anti-Abeta antibody isotype: peptide vaccination without adjuvant
Source text: To further confirm the inflammation issue, we detected type one and type two T cell response by using the mouse anti-Abeta IgG isotyping method. […] (see FIG. 10).

Row | Substance | Antibody production (mice) | Anti-Abeta antibody isotype (BALB/c mice [3]) | other results
1 | AN1792: wild type amyloid beta 1-42 peptide used as a vaccine with adjuvant QS-21 and polysorbate 80 |  |  | Occurrence of meningoencephalitis, subset of patients ([1]; Phase II): 6%; Clinical benefits in follow up study of vaccinated patients [1]: reduced AD-like pathology and improved cognition
2 | Abeta 1-25: Abeta fragment 1-25 [reference compound] | no antibody production |  | 
3 | DAEFRHDSGYEVHHQKLVFFAQDVGSNKGAIIGLM [Abeta 1-35 carrying Dutch mutation, Aβ 1-35 with Dutch mutation] | antibody production |  | 
4 | PDM: Abeta 1-42 with Dutch mutation, aa16-24 KLVFFAQDV |  |  | Long term antibody and memory response after boost (BALB/c mice [2]): induce long term antibody response and with a good memory response; Th response by antibody isotyping with adjuvant (BALB/c mice [3]; adjuvant MPL treated vaccine compared to no adjuvant): adjuvant clearly induces a Th1 response
5 | PFDM: Abeta 1-42 with both Flemish and Dutch mutation, aa16-24 KLVFFGQDV |  | IgG2a response | 
6 | PFM: Abeta 1-42 with Flemish mutation, aa16-24 KLVFFGEDV |  | IgG2a response | 
